Tests used:
[1] = system: Phospho-Rb (Ser807/811) in MCF7 cells; experiment: Phospho-Rb expression inhibition in MCF7 cells quantified by in cell Western; format: cell-based, human; conditions: Homo sapiens, MCF7, 24 h, 24 hours, in cell Western, read-out: MCF7 pRb IC50
Method: MCF7 cells were obtained from American Type Culture Collection (ATCC, HTB-22). MCF7 cells were plated in 96-well plates (VWR #10062-900, or Coming #3904) in 90 μL culture medium at a density of 20,000 cells/well in the DMEM growth medium containing 10%/FBS and 1% Penicillin Streptomycin, and then incubated at 37° C. overnight. The following day, the test compound was administered to the cells by using 1000× compound stock solution prepared in DMSO at various concentrations. 1000× compound stock solution was first diluted in culturing medium to 10×, then 10 μL compound medium was added to each well in the cell plates. After administration of the compound, the cells were then incubated at 37° C. for 24 h. Upon completion, the cells were washed with PBS briefly. 150 μL/well of 4% formaldehyde was added and the plates were incubated at room temperature for 20 min. The cells were washed with PBS briefly, and permeabilized with 150 µL/well of ice cold 100% methanol for 10 min. The cells were washed with PBS briefly and blocked with 100 µL/well LI-COR blocking buffer for 1 h at room temperature with gentle shaking. The cells were incubated overnight at 4° C. with 50 μL primary antibody rabbit anti-Phospho-Rb (Ser807/811) (1: 500, Cell Signaling, #8516) and anti-Rb (1:200, Santa Cruz, sc-73598) diluted in Intercept Blocking Buffer (LI-COR, #927-60001) containing 0.1% Tween 20. The next day, the cells were washed with 200 μL PBS containing 0.1% Tween 20, 5×5 mins at room temperature with gentle shaking, and incubated with 50 μL secondary antibody, IRDye® 800CW Goat anti-Rabbit IgG (1:1000, LI-COR, #926-32211) and FRDye® 680RD Goat anti-Mouse IgG (1:1000, LI-COR, #926-68070), in LI-COR […] blocking buffer with 0.2% Tween 20 for 1 h at room temperature with gentle shaking. The cells were washed with 200 μL PBS containing 0.1% Tween 20, 5×5 min at room temperature with gentle shaking. The cells were washed with PBS for 5 mins. 100 μL fresh PBS was added to each well and the plates were imaged on a LI-COR Odyssey CLX plate reader.
MCF7 cells were obtained from American Type Culture Collection (ATCC, HTB-22). SW1573-CDK6 KO and SW1573-CDK4 KO cells were generated by the CRISPR-Cas9 technology. All cells were plated in 96-well plates (VWR #10062-900, or Corning #3904) in 90 uL culture medium at a density of 20,000 cells/well in the respective growth medium containing 10% FBS and 1% Penicillin Streptomycin, and then incubated at 37° C. overnight. The following day, the test compound was administered to the cells by using 1000× compound stock solution prepared in DMSO at various concentrations. 1000× compound stock solution was first diluted in culturing medium to 10×, then 10 uL compound medium was added to each well in the cell plates. After administration of the compound, the cells were then incubated at 37° C. for 24 hours. Upon completion, the cells were washed with PBS briefly. 150 uL/well of 4% formaldehyde was added and the plates were incubated at room temperature for 20 mins. The cells were washed with PBS briefly, and permeabilized with 150 uL/well of ice cold 100% methanol for 10 mins. The cells were washed with PBS briefly and blocked with 100 uL/well LI-COR blocking buffer for 1 hr at room temperature with gentle shaking. The cells were incubated overnight at 4° C. with 50 uL primary antibody rabbit anti-Phospho-Rb (Ser807/811) (1: 500, Cell Signaling, #8516) and anti-Rb (1:200, Santa Cruz, sc-73598) diluted in Intercept Blocking Buffer (LI-COR, #927-60001) containing 0.1% Tween 20. The next day, the cells were washed with 200 uL PBS containing 0.1% Tween 20, 5×5 mins at room temperature with gentle shaking, and incubated with 50 uL secondary antibody, IRDye® 800CW Goat anti-Rabbit IgG (1:1000, LI-COR, #926-32211) and IRDye®680RD Goat anti-Mouse IgG (1:1000, LI-COR, #926-68070), in LI-COR blocking buffer with 0.2% Tween 20 for 1 hr at room temperature with gentle shaking. […]

22RV1 cells = experiment: Cell growth inhibition of 22RV1 cells (CellTiter-Glo); format: cell-based; conditions: Homo sapiens, 22Rv1, 120 h, 5 days, CellTiter-Glo, read-out: 22RV1 Cell Growh GI50
Method: For cell growth assay, 22RV1 (ATCC, CRL-2505) cells were seeded in 96-well plates at 1000 cells/well in 90 μl of RPMI1640 growth medium containing 20% FBS and 1% Penicillin Streptomycin, and then incubated at 37° C. overnight. The following day, the test compound was administered to the cells by using 1000× compound stock solution prepared in DMSO at various concentrations. 1000× compound stock solution was first diluted in culturing medium to 10×, then 10 uL compound medium was added to each well in the cell plates. After administration of the compound, the cells were then incubated at 37° C. for 5 days. Upon completion, the plates were equilibrated at room temperature for approximately 10 min. 100 μl of CellTiter-Glo® Reagent (Promega) was added to each well. The plates were then incubated at room temperature for 10 min and luminescence was recorded by EnSpire plate reader (PerkinElmer).
22RV1 cells were obtained from American Type Culture Collection (ATCC, CRL-2505). 22RV1 cells were seeded in 96-well plates at 1000 cells/well in 90 μL of RPMI1640 growth medium containing 10% FBS and 1% Penicillin Streptomycin, and then incubated at 37° C. overnight. The following day, the test compound was administered to the cells by using 1000× compound stock solution prepared in DMSO at various concentrations. […], then 10 uL compound medium was added to each well in the cell plates. After administration of the compound, the cells were then incubated at […] for 5 days. Upon completion, the plates were equilibrated at room temperature for approximately 10 minutes. 100 μL of CellTiter-Glo® Reagent (Promega) was added to each well. The plates were then incubated at room temperature for 10 minutes and luminescence was recorded by EnSpire plate reader (PerkinElmer).

IC50 [1]	GI50 (22RV1 cells)	Compound
≤ 40 nM	≤ 120 nM	Cc1c(-c2nc(N[C@@H]3C[C@H]4CO[C@H](O4)[C@H]3O)ncc2F)sc2c(C(C)C)cnnc12 [Compound 266, (1S,3R,4S,5R)-3-((5-fluoro-4-(4-isopropyl-7-methylthieno[3,2-c]pyridazin-6-yl)pyrimidin-2-yl)amino)-6,8-dioxabicyclo[3.2.1]octan-4-ol]
≤ 40 nM	≤ 120 nM	CC(C)c1c(C(C)(C)O)cnc2c(F)cc(-c3nc(N[C@@H]4C[C@H]5CO[C@H](O5)[C@H]4O)ncc3Cl)cc12 [Compound 250, (1S,3R,4S,5R)-3-((5-chloro-4-(8-fluoro-3-(2-hydroxypropan-2-yl)-4-isopropylquinolin-6-yl)pyrimidin-2-yl)amino)-6,8-dioxabicyclo[3.2.1]octan-4-ol]
≤ 40 nM	≤ 120 nM	Cc1c(-c2nc(N[C@@H]3C[C@H]4CO[C@H](O4)[C@H]3O)ncc2F)sc2c(C(C)C)cn(C)c(=O)c12 [Compound 189, 2-(5-fluoro-2-(((1S,3R,4S,5R)-4-hydroxy-6,8-dioxabicyclo[3.2.1]octan-3-yl)amino)pyrimidin-4-yl)-7-isopropyl-3,5-dimethylthieno[3,2-c]pyridin-4(5H)-one]
40 to 150 nM	120 to 450 nM	CC(C)n1c(C2(O)COC2)nc2c(F)cc(-c3nc(N[C@@H]4C[C@H]5CO[C@H](O5)[C@H]4O)ncc3Cl)cc21 [Compound 172, (1S,3R,4S,5R)-3-((5-chloro-4-(4-fluoro-2-(3-hydroxyoxetan-3-yl)-1-isopropyl-1H-benzo[d]imidazol-6-yl)pyrimidin-2-yl)amino)-6,8-dioxabicyclo[3.2.1]octan-4-ol]
40 to 150 nM	≤ 120 nM	CC(C)n1c(C2(C(F)F)CC2)nc2c(F)cc(-c3nc(N[C@@H]4C[C@H]5CO[C@H](O5)[C@H]4O)ncc3Cl)cc21 [Compound 168, (1S,3R,4S,5R)-3-((5-chloro-4-(2-(1-(difluoromethyl)cyclopropyl)-4-fluoro-1-isopropyl-1H-benzo[d]imidazol-6-yl)pyrimidin-2-yl)amino)-6,8-dioxabicyclo[3.2.1]octan-4-ol]
≤ 40 nM	≤ 120 nM	CC1=Nc2c(F)cc(-c3nc(N[C@@H]4C[C@H]5CO[C@H](O5)[C@H]4O)ncc3Cl)cc2C12CCCC2 [Compound 32, (1S,3R,4S,5R)-3-((5-chloro-4-(7′-fluoro-2′-methylspiro[cyclopentane-1,3′-indol]-5′-yl)pyrimidin-2-yl)amino)-6,8-dioxabicyclo[3.2.1]octan-4-ol]
40 to 150 nM	120 to 450 nM	CC(C)n1c(N2CC[C@@H](F)C2)nc2c(F)cc(-c3nc(N[C@@H]4C[C@H]5CO[C@H](O5)[C@H]4O)ncc3Cl)cc21 [Compound 151, (1S,3R,4S,5R)-3-((5-chloro-4-(4-fluoro-2-((R)-3-fluoropyrrolidin-1-yl)-1-isopropyl-1H-benzo[d]imidazol-6-yl)pyrimidin-2-yl)amino)-6,8-dioxabicyclo[3.2.1]octan-4-ol]
≤ 40 nM	≤ 120 nM	CC(C)(O)c1cnc2c(Cl)cc(-c3nc(N[C@@H]4C[C@H]5CO[C@H](O5)[C@H]4O)ncc3F)cc2c1Cl [Compound 285, (1S,3R,4S,5R)-3-((4-(4,8-dichloro-3-(2-hydroxypropan-2-yl)quinolin-6-yl)-5-fluoropyrimidin-2-yl)amino)-6,8-dioxabicyclo[3.2.1]octan-4-ol]
150 to 1000 nM	450 to 3000 nM	CC(C)[C@H]1COC(=O)N1c1nc2c(F)cc(-c3nc(N[C@@H]4C[C@H]5CO[C@H](O5)[C@H]4O)ncc3Cl)cc2n1C(C)C [Compound 297, (S)-3-(6-(5-chloro-2-(((1S,3R,4S,5R)-4-hydroxy-6,8-dioxabicyclo[3.2.1]octan-3-yl)amino)pyrimidin-4-yl)-4-fluoro-1-isopropyl-1H-benzo[d]imidazol-2-yl)-4-isopropyloxazolidin-2-one]
> 1000 nM	> 3000 nM	CN(C)C(=O)c1cc2c(F)cc(-c3nc(N[C@@H]4C[C@H]5CO[C@H](O5)[C@H]4O)ncc3Cl)cc2n1C1CCCC1 [Compound 183, 6-(5-chloro-2-(((1S,3R,4S,5R)-4-hydroxy-6,8-dioxabicyclo[3.2.1]octan-3-yl)amino)pyrimidin-4-yl)-1-cyclopentyl-4-fluoro-N,N-dimethyl-1H-indole-2-carboxamide]
150 to 1000 nM	450 to 3000 nM	CC(C)n1c(C(C)(C)O)nc2c(F)cc(-c3nc(N[C@@H]4C[C@H]5CO[C@H](O5)[C@H]4O)ncc3C(F)F)cc21 [Compound 29, (1S,3R,4S,5R)-3-((5-(difluoromethyl)-4-(4-fluoro-2-(2-hydroxypropan-2-yl)-1-isopropyl-1H-benzo[d]imidazol-6-yl)pyrimidin-2-yl)amino)-6,8-dioxabicyclo[3.2.1]octan-4-ol]
150 to 1000 nM	≤ 120 nM	Cc1c(C(C)(C)O)nnc2c(F)cc(-c3nc(N[C@@H]4C[C@H]5CO[C@H](O5)[C@H]4O)ncc3Cl)cc12 [Compound 279, (1S,3R,4S,5R)-3-((5-chloro-4-(8-fluoro-3-(2-hydroxypropan-2-yl)-4-methylcinnolin-6-yl)pyrimidin-2-yl)amino)-6,8-dioxabicyclo[3.2.1]octan-4-ol]
40 to 150 nM	120 to 450 nM	C[C@H]1COc2c(-c3nc(N[C@@H]4C[C@H]5CO[C@H](O5)[C@H]4O)ncc3Cl)cc(F)c3nc(C(C)(C)O)n1c23 [Compound 37, (1S,3R,4S,5R)-3-((5-chloro-4-((S)-8-fluoro-2-(2-hydroxypropan-2-yl)-3-methyl-3,4-dihydro-5-oxa-1,2a-diazaacenaphthylen-6-yl)pyrimidin-2-yl)amino)-6,8-dioxabicyclo[3.2.1]octan-4-ol]

Reference: patent US20250084095A1, “Aminopyrimidine Derivatives as Cyclin-Dependent Kinase Inhibitors” (Accutar Biotechnology Inc., priority 2023, published 2025)
